The values that follow come from ChEMBL document CHEMBL5625256, “Rapid access to icetexane diterpenes: Their protective effects against lipopolysaccharides-induced acute lung injury via PI3K/AKT/NF-κB axis in macrophages” (Eur J Med Chem, 2023).

The structures appear in SMILES notation. Active and inactive are the calls of the source. The rule behind the calls is not given here.

For data set [1], the system named is RAW264.7. Nature of the data set: Cytotoxicity against mouse RAW264.7 cells assessed as reduction in cell viability at 60 uM measured after 24 hrs by MTT assay. It counts as toxicity, cell-based. The following applies: raw264.7, 24 h. (Formazan colour is commonly taken as a measure of viable cells.)
In data set [2] the test system is RAW264.7. Nature of the data set: Antiinflammatory activity against LPS-induced mouse RAW264.7 cells assessed as decrease in IL-1beta mRNA expression at 10 uM incubated for 8 hrs by RT-PCR analysis. It counts as functional, cell-based.
The subject of data set [3] is RAW264.7. Nature of the data set: Antiinflammatory activity against LPS-induced mouse RAW264.7 cells assessed as decrease in IL-6 mRNA expression at 10 uM incubated for 8 hrs by RT-PCR analysis. It counts as functional, cell-based.
Data set [4] concerns RAW264.7. Nature of the data set: Antiinflammatory activity against LPS-induced mouse RAW264.7 cells assessed as decrease in TNF-alpha mRNA expression at 10 uM incubated for 8 hrs by RT-PCR analysis. It counts as functional, cell-based.
Data set [5] deals with RAW264.7. Nature of the data set: Antiinflammatory activity against LPS-induced mouse RAW264.7 cells assessed as decrease in IL-1beta mRNA expression incubated for 8 hrs by RT-PCR analysis. It counts as functional, cell-based. The following applies: dose <= 20.0 µM.
The subject of data set [6] is RAW264.7. Nature of the data set: Antiinflammatory activity against LPS-induced mouse RAW264.7 cells assessed as decrease in IkappaBalpha level incubated for 8 hrs by Western blot analysis. It counts as functional, cell-based. The settings on record: dose <= 20.0 µM. For orientation: A western blot detects proteins with antibodies after separation by electrophoresis.

The test system of data set [7] is RAW264.7. Nature of the data set: Antiinflammatory activity against LPS-induced mouse RAW264.7 cells assessed as decrease in nuclear translocation incubated for 8 hrs by DAPI staining based immunofluorescence analysis. It counts as functional, cell-based. The settings on record: dose <= 20.0 µM.
Data set [8] concerns Mus musculus. Nature of the data set: In vivo inhibition of PI3K-AKT phosphorylation in LPS-induced […] C57BL/6 mouse model at 5 to 25 mg/kg, ip measured for 24 hrs by Western blot analysis. It counts as functional, organism-based. The following applies: dose 5-25 mg/kg.
For data set [9], the system named is RAW264.7. Nature of the data set: Antiinflammatory activity against LPS-induced mouse RAW264.7 cells transfected with AKT shRNA assessed as decrease in IL-1beta expression incubated for 8 hrs by Western blot analysis. The settings on record: dose <= 20.0 µM. It counts as functional, cell-based.
Data set [10] deals with Mus musculus. Nature of the data set: Antiinflammatory activity against LPS-induced […] C57BL/6 mouse model assessed as reduction in IL-6 mRNA expression in lung at 5 to 25 mg/kg, ip incubated for 24 hrs by RT-PCR analysis. The settings on record: dose 5-25 mg/kg. It counts as functional, organism-based.
Data set [11] concerns Mus musculus. Nature of the data set: Antiinflammatory activity against LPS-induced […] C57BL/6 mouse model assessed as reduction in lung injury score at 5 to 25 mg/kg, ip incubated for 24 hrs by H and E staining based analysis. It counts as functional, organism-based. The following applies: dose 5-25 mg/kg.
Data set [12] deals with Mus musculus. Nature of the data set: Antiinflammatory activity against LPS-induced […] C57BL/6 mouse model assessed as reduction in IL-1beta mRNA expression in lung at 5 to 25 mg/kg, ip incubated for 24 hrs by RT-PCR analysis. The settings on record: dose 5-25 mg/kg. It counts as functional, organism-based.
For data set [13], the system named is RAW264.7. Nature of the data set: Antiinflammatory activity against LPS-induced mouse RAW264.7 cells assessed as downregulation of AKT level incubated for 8 hrs by Western blot analysis. It counts as functional, cell-based. The settings on record: dose <= 20.0 µM.
Data set [14] deals with Mus musculus. Nature of the data set: Antiinflammatory activity against LPS-induced […] in ip dosed C57BL/6 mouse model assessed as reduction in MDA level in serum incubated for 24 hrs. It counts as functional, organism-based. The following applies: dose 5-25 mg/kg.
Data set [15] deals with RAW264.7. Nature of the data set: Antiinflammatory activity against LPS-induced mouse RAW264.7 cells assessed as downregulation of PI3K level incubated for 8 hrs by Western blot analysis. It counts as functional, cell-based. The following applies: dose <= 20.0 µM.
The subject of data set [16] is RAW264.7. Nature of the data set: Antiinflammatory activity against LPS-induced mouse RAW264.7 cells assessed as decrease in NF-kappaB level incubated for 8 hrs by DAPI staining based immunofluorescence analysis. It counts as functional, cell-based. The settings on record: dose <= 20.0 µM.
Data set [17] relates to RAW264.7. Nature of the data set: Antiinflammatory activity against LPS-induced mouse RAW264.7 cells assessed as decrease in IL-6 mRNA expression incubated for 8 hrs by RT-PCR analysis. It counts as functional, cell-based. The following applies: dose <= 20.0 µM.
The subject of data set [18] is RAW264.7. Nature of the data set: Antiinflammatory activity against LPS-induced mouse RAW264.7 cells transfected with AKT shRNA assessed as decrease in TNF-alpha expression incubated for 8 hrs by Western blot analysis. It counts as functional, cell-based. The following applies: dose <= 20.0 µM.
For data set [19], the system named is RAW264.7. Nature of the data set: Antiinflammatory activity against LPS-induced mouse RAW264.7 cells assessed as decrease in IkappaBalpha level incubated for 8 hrs by DAPI staining based immunofluorescence analysis. The following applies: dose <= 20.0 µM. It counts as functional, cell-based.
The test system of data set [20] is RAW264.7. Nature of the data set: Antiinflammatory activity against LPS-induced mouse RAW264.7 cells assessed as suppression of iNOS mRNA expression incubated for 8 hrs by RT-PCR analysis. It counts as functional, cell-based. The settings on record: dose <= 20.0 µM.
Data set [21] concerns Mus musculus. Nature of the data set: Antiinflammatory activity against LPS-induced […] C57BL/6 mouse model assessed as reduction IkappaBalpha level in lung at 5 to 25 mg/kg, ip incubated for 24 hrs by Western blot analysis. It counts as functional, organism-based. The settings on record: dose 5-25 mg/kg.
Data set [22] relates to RAW264.7. Nature of the data set: Antiinflammatory activity against LPS-induced mouse RAW264.7 cells assessed as decrease in TNF-alpha mRNA expression incubated for 8 hrs by RT-PCR analysis. It counts as functional, cell-based. The following applies: dose <= 20.0 µM.
For data set [23], the system named is RAW264.7. Nature of the data set: Antiinflammatory activity against LPS-induced mouse RAW264.7 cells assessed as inhibition of NO release incubated for 8 hrs […]. It counts as functional, cell-based. The following applies: dose <= 20.0 µM.
For data set [24], the system named is RAW264.7. Nature of the data set: Antiinflammatory activity against mouse RAW264.7 cells assessed as reduction in LPS-induced ROS production incubated for 8 hrs by DCFH-DA staining based flow cytometry analysis. It counts as functional, cell-based. The following applies: dose <= 20.0 µM. On the technique in general: In flow cytometry, cells or beads pass a laser one at a time.

In data set [25] the test system is Mus musculus. Nature of the data set: In vivo inhibition of PI3K-AKT phosphorylation in LPS-induced […] C57BL/6 mouse model at 5 to 25 mg/kg, ip measured for 24 hrs by Immunohistochemistry analysis. It counts as functional, organism-based. The settings on record: dose 5-25 mg/kg.
Data set [26] has as its system Mus musculus. Nature of the data set: Antiinflammatory activity against LPS-induced […] in ip dosed C57BL/6 mouse model assessed as increase in SOD level in serum incubated for 24 hrs. It counts as functional, organism-based. The following applies: dose 5-25 mg/kg.
For data set [27], the system named is RAW264.7. Nature of the data set: Antiinflammatory activity against LPS-induced mouse RAW264.7 cells assessed as downregulation of total PI3K level incubated for 8 hrs by Western blot analysis. It counts as functional, cell-based. The settings on record: dose <= 20.0 µM.
Data set [28] has as its system RAW264.7. Nature of the data set: Antiinflammatory activity against LPS-induced mouse RAW264.7 cells assessed as downregulation of total AKT level incubated for 8 hrs by Western blot analysis. It counts as functional, cell-based. The following applies: dose <= 20.0 µM.
In data set [29] the test system is RAW264.7. Nature of the data set: Antiinflammatory activity against LPS-induced mouse RAW264.7 cells assessed as decrease in nuclear translocation incubated for 8 hrs by Western blot analysis. It counts as functional, cell-based. The settings on record: dose <= 20.0 µM.
The subject of data set [30] is Mus musculus. Nature of the data set: Antiinflammatory activity against LPS-induced […] C57BL/6 mouse model assessed as reduction in TNF-alpha mRNA expression in lung at 5 to 25 mg/kg, ip incubated for 24 hrs by RT-PCR analysis. It counts as functional, organism-based. The following applies: dose 5-25 mg/kg.
For data set [31], the system named is RAW264.7. Nature of the data set: Antiinflammatory activity against LPS-induced mouse RAW264.7 cells assessed as decrease in NF-kappaB level incubated for 8 hrs by Western blot analysis. It counts as functional, cell-based. The settings on record: dose <= 20.0 µM.
Data set [32] deals with RAW264.7. Nature of the data set: Antiinflammatory activity against LPS-induced mouse RAW264.7 cells transfected with AKT shRNA assessed as decrease in IL-6 expression incubated for 8 hrs by Western blot analysis. It counts as functional, cell-based. The settings on record: dose <= 20.0 µM.

As to `CC(C)c1cc2c(c3c1OC(C)(C)O3)C=C1C=CC(=O)C(C)(C)C1=CC2`, the Activity result in the data set with RAW264.7 [1] is reported as “Toxic”.

Turning to `COc1c(C(C)C)cc2c(=O)cc3c(cc2c1OC)C=CC(O)C3(C)C` (configuration not stated), the Activity result in the data set with RAW264.7 [1] is given as “Toxic”.

With `CC(C)c1cc2c(c(O)c1O)C=C1C=CC(=O)C(C)(C)C1CC2=O` (configuration not stated), the Activity entry with RAW264.7 [1] is on record as “Toxic”.

Take `C[C@@H]1C[C@H]2[C@@H]3CCC4=CC(=O)C=C[C@]4(C)[C@@]3(F)[C@@H](O)C[C@]2(C)[C@@]1(O)C(=O)CO`: the outcome in the data set with RAW264.7 [2], with RAW264.7 [3] and in the data set on RAW264.7 [4] was Active.

For the compound `COc1c(C(C)C)cc2c(=O)cc3c(cc2c1OC)C=CC(=O)C3(C)C`, the Activity result with RAW264.7 [5], in the data set with RAW264.7 [6], with RAW264.7 [7], in the data set on RAW264.7 [9], in the data set on RAW264.7 [13] and in the data set with Mus musculus [14] was “Dose-Dependent Effect” each time. Moreover, the Activity result in the data set with RAW264.7 [15], with RAW264.7 [16], with RAW264.7 [17], in the data set on RAW264.7 [18], in the data set with RAW264.7 [19] and with RAW264.7 [20] was “Dose-Dependent Effect” each time. In addition, the Activity result in the data set with RAW264.7 [22], in the data set with RAW264.7 [23], with RAW264.7 [24], with Mus musculus [26], with RAW264.7 [27] and with RAW264.7 [28] was “Dose-Dependent Effect” throughout. Besides, the Activity entry with RAW264.7 [29], in the data set with RAW264.7 [31] and in the data set with RAW264.7 [32] was “Dose-Dependent Effect” each time. In addition, the inhibition result in the data set with Mus musculus [8] and in the data set on Mus musculus [25] was “Active” in each case. The outcome with Mus musculus [10], in the data set on RAW264.7 [2], with RAW264.7 [3], in the data set on Mus musculus [11], in the data set with Mus musculus [12] and in the data set on RAW264.7 [4] was Active. Further, the outcome in the data set with Mus musculus [21] and in the data set with Mus musculus [30] was Active.
